Experiment [1] relates to RAW264.7 cells. The arrangement: method as in PMID 34971945. As to conditions: RAW264.7 cells induced with lipopolysaccharide; cited from earlier work.
Experiment [2] concerns the target T1, α-glucosidase (Saccharomyces cerevisiae, UniProt P53341).
T1 construct: purchased Merck (Germany) G5003
As to the kind of experiment: α-glucosidase inhibition assay (4-nitrophenyl-D-glucopyranoside substrate, 405 nm). The experiment is classed as biochemical. The conditions noted are these: for inhibition at 100 µM: compound at 100 µM, mean ± SEM, triplicate. The procedure:
The α-glucosidase assay was performed as previously described. First, 130 μL of α-glucosidase (0.16 unit/mL) in 0.1 mM phosphate buffer (pH 6.8) was added to a 96-well plate with 20 μL of test compounds dissolved in dimethylsulfoxide. Then, 50 μL of 1 mM substrate (4-nitrophenyl-D-glucopyranoside) in the buffer was added to the mixture. The intensity of p-nitrophenol converted from 4-nitrophenyl-D-glucopyranoside by α-glucosidase was measured after […] at 405 nm using Infinite 200 PRO spectrophotometer (Tecan, Zürich, Switzerland). (1) Inhibitory activity rate (%)=[(ΔC−ΔS)/ΔC]×100 where ΔC and ΔS are the intensity of control and inhibitor after 20 min, respectively. […] The inhibitory effect was elucidated via triplicate independent experiments. […] Statistical differences were investigated using one-way ANOVA and Duncanʹs test with a p-value < 0.05. SigmaPlot 10.0 (Systat Software Inc., San Jose, CA, USA) was used to analyze the inhibition results.

Experiment [3] concerns PTP1B. The arrangement: method as in PMID 34416263. The conditions noted are these: previous studies; cited from earlier work.
In experiment [4] the target is β-glucuronidase. Details: method as in PMID 36295840. As to conditions: previous studies; cited from earlier work.
Experiment [5] has as its system platelet aggregation induced by collagen. The arrangement: method as in PMID 31200488. The conditions noted are these: cited from earlier work.
The subject of experiment [6] is platelet aggregation induced by arachidonic acid. Details: method as in PMID 31200488. As to conditions: cited from earlier work.
Experiment [7] deals with SARS-CoV-2. Details: method as in PMID 35214108. The conditions noted are these: Vero cells, immunofluorescence-based antiviral assays; cited from earlier work.
The subject of experiment [8] is influenza A virus H1N1. Details: method as in PMID 34971945. As to conditions: cited from earlier work.

Results on eight compounds are retold here after paper PMC10145310, “Optimization of Ultrasonic-Assisted Extraction of α-Glucosidase Inhibitors from Dryopteris crassirhizoma Using Artificial Neural Network and Response Surface Methodology” (Metabolites, 2023).

T1 sequence (P53341 whole entry): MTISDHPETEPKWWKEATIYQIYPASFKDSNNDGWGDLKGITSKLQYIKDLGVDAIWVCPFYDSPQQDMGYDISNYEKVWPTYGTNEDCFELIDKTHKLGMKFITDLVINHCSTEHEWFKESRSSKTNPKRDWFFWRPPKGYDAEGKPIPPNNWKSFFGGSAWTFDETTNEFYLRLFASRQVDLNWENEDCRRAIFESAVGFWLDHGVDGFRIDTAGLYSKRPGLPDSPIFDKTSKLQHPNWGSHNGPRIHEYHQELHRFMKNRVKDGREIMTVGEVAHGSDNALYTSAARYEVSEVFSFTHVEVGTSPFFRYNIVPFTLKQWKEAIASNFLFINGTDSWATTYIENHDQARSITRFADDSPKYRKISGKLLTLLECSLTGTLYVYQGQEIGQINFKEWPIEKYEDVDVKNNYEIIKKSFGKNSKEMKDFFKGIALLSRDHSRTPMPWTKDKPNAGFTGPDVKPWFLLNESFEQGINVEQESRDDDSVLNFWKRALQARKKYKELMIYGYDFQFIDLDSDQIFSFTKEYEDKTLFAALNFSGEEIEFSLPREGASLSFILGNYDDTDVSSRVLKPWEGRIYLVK

In the case of 3″-epi-dryoptol G, the “effect on production of nitric oxide and secretion of IL-1β and IL-18” value in experiment [1] was “significant inhibitory effects”. As for `C[C@H]1O[C@H](O[C@H]2[C@H](O)[C@@H](O)[C@@H](O[C@H]3[C@H](O)[C@@H](O)C(O)O[C@@H]3CO)O[C@@H]2CO)[C@H](O)[C@@H](O)[C@@H]1N[C@H]1C=C(CO)[C@@H](O)[C@H](O)[C@H]1O` (stereo partly shown) [Acarbose, acarbose], the inhibition at 100 µM in experiment [2] worked out at 21.7 ± 1.43%.

The compound `CCC(=O)c1c(O)c(C)c(O)c(CC2=C(O)C(C)(C)C(O)=C(C(C)=O)C2=O)c1O` [Compound 1, flavaspidic acid AP] had an inhibition at 100 µM in experiment [2] below 50%. `CCCC(=O)c1c(O)cc(O)c(Cc2c(O)c(CC3=C(O)C(C)(C)C(O)=C(C(C)=O)C3=O)c(O)c(C(=O)CCC)c2O)c1O` [Compound 2, nortrisflavaspidic acid ABB]: the IC50 is 34 ± 0.14 µM in experiment [2], 1.19 ± 0.13 µM in experiment [3] and 8 ± 1.8 µM in experiment [4]. For the same compound, the inhibition at 100 µM in experiment [2] is above 50%. With `CCCC(=O)c1c(O)cc(O)c(C)c1O` [butyryl-3-methylphloroglucinol], the “inhibition of platelet aggregation, ratio” value in experiment [5] is 92.36%; in experiment [6], 89.51%. As to dryocrassin ABBA, the “inhibitory activity against SARS-CoV-2 infection” value in experiment [7] is “dose-dependent inhibitory activity”. Regarding dryoptol G, the “effect on production of nitric oxide and secretion of IL-1β and IL-18” value in experiment [1] is “significant inhibitory effects”. On to filixic acid ABA, for which the “inhibitory activity against SARS-CoV-2 infection” value in experiment [7] is given as “dose-dependent inhibitory activity”. Further, in experiment [8], the “antiviral effect against influenza A virus H1N1” value is recorded as “responsible for the antiviral effect”.

By inhibition is commonly meant the relative decrease from the control value, in per cent. Read a low inhibition as little suppression. The term IC50 denotes the midpoint of a concentration-inhibition curve.
